In the supplement of paper PMC10307832:

How the values were obtained:
Assay in all cases: relative viability (nuclei count vs DMSO), 5 days (fraction); higher = more cells survive
COR-L 105 = test system: COR-L 105
How it was run: (§1)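 Relative viability was taken as the ratio of nuclei in treated wells to nuclei in vehicle wells. Lung cancer cell lines in 1536-well plates received compounds by pin tool one day after seeding, either one drug alone or a fixed anchor-drug dose plus five library-drug doses (not always all listed) in √10 steps. Nuclei were counted on 4× images after 5 days of treatment, and values are medians of duplicate plates.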

LCLC-103H = test system: LCLC-103H
How it was run: as §1

NCI-H1915 = test system: NCI-H1915
How it was run: as §1

SW 1573 = test system: SW 1573
How it was run: as §1

NCI-H522 = test system: NCI-H522
How it was run: as §1

NCI-H23 = test system: NCI-H23
How it was run: as §1

HARA = test system: HARA
How it was run: as §1

NCI-H1437 = test system: NCI-H1437
How it was run: as §1

HCC-366 = test system: HCC-366
How it was run: as §1

EMC-BAC-2 = test system: EMC-BAC-2
How it was run: as §1

NCI-H460 = test system: NCI-H460
How it was run: as §1

Nc1ccn([C@@H]2O[C@H](CO)[C@@H](O)[C@@H]2O)c(=O)n1 [Cytarabine] + Cc1cc(Nc2cc(N3CCN(C)CC3)nc(Sc3ccc(NC(=O)C4CC4)cc3)n2)n[nH]1 [Tozasertib] (partner 0.1 µM)
relative viability (COR-L 105; first compound 0.005 µM): 0.305
relative viability (COR-L 105; first compound 0.01581 µM): 0.317
relative viability (COR-L 105; first compound 0.05 µM): 0.306
relative viability (COR-L 105; first compound 0.1581 µM): 0.319
relative viability (COR-L 105; first compound 0.5 µM): 0.334
relative viability (LCLC-103H; first compound 0.005 µM): 0.568
relative viability (LCLC-103H; first compound 0.01581 µM): 0.487
relative viability (LCLC-103H; first compound 0.05 µM): 0.413
relative viability (LCLC-103H; first compound 0.1581 µM): 0.436
relative viability (LCLC-103H; first compound 0.5 µM): 0.373
relative viability (NCI-H1915; first compound 0.005 µM): 0.351
relative viability (NCI-H1915; first compound 0.01581 µM): 0.472
relative viability (NCI-H1915; first compound 0.05 µM): 0.401
relative viability (NCI-H1915; first compound 0.1581 µM): 0.319
relative viability (NCI-H1915; first compound 0.5 µM): 0.32
relative viability (SW 1573; first compound 0.005 µM): 0.184
relative viability (SW 1573; first compound 0.01581 µM): 0.161
relative viability (SW 1573; first compound 0.05 µM): 0.128
relative viability (SW 1573; first compound 0.1581 µM): 0.169
relative viability (SW 1573; first compound 0.5 µM): 0.101
relative viability (NCI-H522; first compound 0.005 µM): 0.556
relative viability (NCI-H522; first compound 0.01581 µM): 0.5
relative viability (NCI-H522; first compound 0.05 µM): 0.476
relative viability (NCI-H522; first compound 0.1581 µM): 0.482
relative viability (NCI-H522; first compound 0.5 µM): 0.572
relative viability (NCI-H23; first compound 0.005 µM): 0.362
relative viability (NCI-H23; first compound 0.01581 µM): 0.32
relative viability (NCI-H23; first compound 0.05 µM): 0.243
relative viability (NCI-H23; first compound 0.1581 µM): 0.55
relative viability (NCI-H23; first compound 0.5 µM): 0.244
relative viability (HARA; first compound 0.005 µM): 0.102
relative viability (HARA; first compound 0.01581 µM): 0.102
relative viability (HARA; first compound 0.05 µM): 0.0829
relative viability (HARA; first compound 0.1581 µM): 0.0658
relative viability (HARA; first compound 0.5 µM): 0.0703
relative viability (NCI-H1437; first compound 0.005 µM): 0.295
relative viability (NCI-H1437; first compound 0.01581 µM): 0.355
relative viability (NCI-H1437; first compound 0.05 µM): 0.365
relative viability (NCI-H1437; first compound 0.1581 µM): 0.251
relative viability (NCI-H1437; first compound 0.5 µM): 0.175
relative viability (HCC-366; first compound 0.005 µM): 0.149
relative viability (HCC-366; first compound 0.01581 µM): 0.119
relative viability (HCC-366; first compound 0.05 µM): 0.0834
relative viability (HCC-366; first compound 0.1581 µM): 0.0612
relative viability (HCC-366; first compound 0.5 µM): 0.0652
relative viability (EMC-BAC-2; first compound 0.005 µM): 0.302
relative viability (EMC-BAC-2; first compound 0.01581 µM): 0.288
relative viability (EMC-BAC-2; first compound 0.05 µM): 0.242
relative viability (EMC-BAC-2; first compound 0.1581 µM): 0.233
relative viability (EMC-BAC-2; first compound 0.5 µM): 0.168
relative viability (NCI-H460; first compound 0.005 µM): 0.438
relative viability (NCI-H460; first compound 0.01581 µM): 0.362
